Three molecules from ChEMBL document CHEMBL3627608, “Crystal structures of human RIP2 kinase catalytic domain complexed with ATP-competitive inhibitors: Foundations for understanding inhibitor selectivity” (Bioorg Med Chem, 2015) can be followed below.

The target in assay [1] is T1, Ephrin type-B receptor 1 (Homo sapiens) (UniProt P54762).
T1 sequence (whole entry): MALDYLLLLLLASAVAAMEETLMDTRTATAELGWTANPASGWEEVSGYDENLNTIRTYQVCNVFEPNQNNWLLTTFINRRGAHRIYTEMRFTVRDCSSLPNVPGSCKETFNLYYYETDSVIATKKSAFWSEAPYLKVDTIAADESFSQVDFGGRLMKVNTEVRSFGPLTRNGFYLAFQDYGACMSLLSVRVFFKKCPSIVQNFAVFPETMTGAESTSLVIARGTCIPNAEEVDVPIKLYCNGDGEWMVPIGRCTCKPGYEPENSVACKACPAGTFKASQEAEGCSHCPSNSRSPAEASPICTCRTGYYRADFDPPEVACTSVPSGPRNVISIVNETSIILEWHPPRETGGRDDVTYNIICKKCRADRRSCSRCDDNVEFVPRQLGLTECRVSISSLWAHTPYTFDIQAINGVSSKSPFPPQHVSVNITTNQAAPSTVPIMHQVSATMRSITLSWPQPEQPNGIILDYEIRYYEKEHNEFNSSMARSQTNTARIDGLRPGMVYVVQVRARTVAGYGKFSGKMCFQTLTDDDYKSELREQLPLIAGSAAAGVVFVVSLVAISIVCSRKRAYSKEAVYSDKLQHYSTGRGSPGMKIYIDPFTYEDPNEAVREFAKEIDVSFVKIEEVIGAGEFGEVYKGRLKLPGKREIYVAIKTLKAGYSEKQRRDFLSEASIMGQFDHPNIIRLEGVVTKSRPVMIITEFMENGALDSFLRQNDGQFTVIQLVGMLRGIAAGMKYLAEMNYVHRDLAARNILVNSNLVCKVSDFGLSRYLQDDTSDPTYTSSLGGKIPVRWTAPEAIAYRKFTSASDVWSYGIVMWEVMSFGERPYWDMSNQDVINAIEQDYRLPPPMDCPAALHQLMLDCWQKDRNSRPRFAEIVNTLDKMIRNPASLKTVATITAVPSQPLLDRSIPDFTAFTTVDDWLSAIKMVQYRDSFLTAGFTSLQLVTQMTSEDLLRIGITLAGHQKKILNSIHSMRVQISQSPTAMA
As to the kind of experiment: Inhibition of EPHB1 (unknown origin) at 10 uM after 120 mins P33 radiolabeled kinase activity assay.

Assay [2] deals with Receptor tyrosine-protein kinase erbB-4 (Homo sapiens) (UniProt Q15303). As to the kind of experiment: Inhibition of ERBB4 (unknown origin) at 10 uM after 120 mins P33 radiolabeled kinase activity assay.
Assay [3] deals with Receptor-type tyrosine-protein kinase FLT3 (Homo sapiens) (UniProt P36888). As to the kind of experiment: Inhibition of FLT3 (unknown origin) at 10 uM after 120 mins P33 radiolabeled kinase activity assay.
Assay [4] addresses Tyrosine-protein kinase Fyn (Homo sapiens) (UniProt P06241). As to the kind of experiment: Inhibition of FYN (unknown origin) at 10 uM after 120 mins P33 radiolabeled kinase activity assay.
Assay [5] addresses T2, Serine/threonine-protein kinase STK11 (Homo sapiens) (UniProt Q15831).
T2 sequence (whole entry): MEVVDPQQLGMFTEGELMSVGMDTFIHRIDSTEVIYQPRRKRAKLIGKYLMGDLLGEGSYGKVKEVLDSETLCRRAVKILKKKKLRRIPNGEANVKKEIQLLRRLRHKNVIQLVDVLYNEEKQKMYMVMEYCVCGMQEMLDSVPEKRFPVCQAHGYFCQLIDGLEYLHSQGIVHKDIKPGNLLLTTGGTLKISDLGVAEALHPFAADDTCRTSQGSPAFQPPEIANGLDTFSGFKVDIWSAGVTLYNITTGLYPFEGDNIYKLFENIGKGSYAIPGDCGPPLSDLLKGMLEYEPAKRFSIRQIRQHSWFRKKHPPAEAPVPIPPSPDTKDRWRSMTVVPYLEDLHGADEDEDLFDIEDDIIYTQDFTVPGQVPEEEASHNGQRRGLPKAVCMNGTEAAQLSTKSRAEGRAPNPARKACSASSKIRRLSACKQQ
As to the kind of experiment: Inhibition of LKB1 (unknown origin) at 10 uM after 120 mins P33 radiolabeled kinase activity assay.

For assay [6], the target named is Tyrosine-protein kinase Lyn (Homo sapiens) (UniProt P07948). As to the kind of experiment: Inhibition of LYN B (unknown origin) at 10 uM after 120 mins P33 radiolabeled kinase activity assay.
Assay [7] has as its target Myosin light chain kinase, smooth muscle (Homo sapiens) (UniProt Q15746). Briefly: Inhibition of MLCK (unknown origin) at 10 uM after 120 mins P33 radiolabeled kinase activity assay.
The target in assay [8] is T3, Serine/threonine-protein kinase 4 (Homo sapiens) (UniProt Q13043).
T3 sequence (whole entry): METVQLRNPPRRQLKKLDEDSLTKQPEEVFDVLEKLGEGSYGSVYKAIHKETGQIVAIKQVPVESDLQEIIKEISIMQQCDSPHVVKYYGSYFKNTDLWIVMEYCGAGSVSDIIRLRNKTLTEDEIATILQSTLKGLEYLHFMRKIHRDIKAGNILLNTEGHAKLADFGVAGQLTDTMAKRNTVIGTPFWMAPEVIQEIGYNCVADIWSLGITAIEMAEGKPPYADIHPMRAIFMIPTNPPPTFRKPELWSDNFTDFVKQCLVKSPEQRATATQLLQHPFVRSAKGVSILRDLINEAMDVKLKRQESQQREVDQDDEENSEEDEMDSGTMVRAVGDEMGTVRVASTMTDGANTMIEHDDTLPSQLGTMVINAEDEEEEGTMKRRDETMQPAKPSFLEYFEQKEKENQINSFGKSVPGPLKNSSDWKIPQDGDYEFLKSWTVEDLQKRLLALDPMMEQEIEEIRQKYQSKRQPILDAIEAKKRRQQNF
Briefly: Inhibition of MST1 (unknown origin) at 10 uM after 120 mins P33 radiolabeled kinase activity assay.

Assay [9] addresses Ribosomal protein S6 kinase alpha-3 (Homo sapiens) (UniProt P51812). As to the kind of experiment: Inhibition of RSK2 (unknown origin) at 10 uM after 120 mins P33 radiolabeled kinase activity assay.
Assay [10] deals with Serine/threonine-protein kinase SIK1 (Homo sapiens) (UniProt P57059). Briefly: Inhibition of SIK1 (unknown origin) at 10 uM after 120 mins P33 radiolabeled kinase activity assay.
Assay [11] concerns the target NT-3 growth factor receptor (Homo sapiens) (UniProt Q16288). Briefly: Inhibition of TRKC (unknown origin) at 10 uM after 120 mins P33 radiolabeled kinase activity assay.
The target in assay [12] is Tyrosine-protein kinase Yes (Homo sapiens) (UniProt P07947). As to the kind of experiment: Inhibition of YES (unknown origin) at 10 uM after 120 mins P33 radiolabeled kinase activity assay.
In assay [13] the target is Citron Rho-interacting kinase (Homo sapiens) (UniProt O14578). Briefly: Inhibition of STK21 (unknown origin) at 10 uM after 120 mins P33 radiolabeled kinase activity assay.
In assay [14] the target is Calcium/calmodulin-dependent protein kinase type 1 (Homo sapiens) (UniProt Q14012). Briefly: Inhibition of CAMK1alpha (unknown origin) at 10 uM after 120 mins P33 radiolabeled kinase activity assay.
The target of assay [15] is Dual specificity protein kinase CLK2 (Homo sapiens) (UniProt P49760). Briefly: Inhibition of CLK2 (unknown origin) at 10 uM after 120 mins P33 radiolabeled kinase activity assay.

Chain of Receptor-type tyrosine-protein kinase FLT3 (Homo sapiens) (P36888 whole entry): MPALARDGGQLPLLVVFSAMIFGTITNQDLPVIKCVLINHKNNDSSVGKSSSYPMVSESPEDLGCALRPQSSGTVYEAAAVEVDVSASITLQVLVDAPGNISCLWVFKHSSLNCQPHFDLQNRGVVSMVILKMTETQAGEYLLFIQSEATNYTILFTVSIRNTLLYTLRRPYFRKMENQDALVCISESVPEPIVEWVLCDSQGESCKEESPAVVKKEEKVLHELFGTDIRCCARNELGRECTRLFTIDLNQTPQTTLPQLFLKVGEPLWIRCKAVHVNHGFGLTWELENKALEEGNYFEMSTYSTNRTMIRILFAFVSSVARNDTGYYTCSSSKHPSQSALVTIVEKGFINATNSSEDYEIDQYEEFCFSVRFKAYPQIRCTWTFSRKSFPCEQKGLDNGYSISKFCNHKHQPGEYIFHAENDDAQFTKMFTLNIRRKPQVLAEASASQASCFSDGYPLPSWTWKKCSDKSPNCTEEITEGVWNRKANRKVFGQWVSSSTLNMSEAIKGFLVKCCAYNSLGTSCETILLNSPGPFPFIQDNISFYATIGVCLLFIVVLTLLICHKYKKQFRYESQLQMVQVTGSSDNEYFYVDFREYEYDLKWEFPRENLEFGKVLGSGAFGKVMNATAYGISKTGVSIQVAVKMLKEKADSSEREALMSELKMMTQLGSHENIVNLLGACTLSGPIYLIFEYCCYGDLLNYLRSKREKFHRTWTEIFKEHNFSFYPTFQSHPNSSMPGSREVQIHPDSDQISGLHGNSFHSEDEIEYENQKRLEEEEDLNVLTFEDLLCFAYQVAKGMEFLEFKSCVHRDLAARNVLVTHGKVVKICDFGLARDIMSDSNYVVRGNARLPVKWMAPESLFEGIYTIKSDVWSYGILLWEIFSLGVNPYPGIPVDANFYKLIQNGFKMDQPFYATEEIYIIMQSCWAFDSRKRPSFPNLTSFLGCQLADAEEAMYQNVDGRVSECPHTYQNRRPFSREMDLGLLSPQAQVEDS
Chain of Myosin light chain kinase, smooth muscle (Homo sapiens) (Q15746 whole entry): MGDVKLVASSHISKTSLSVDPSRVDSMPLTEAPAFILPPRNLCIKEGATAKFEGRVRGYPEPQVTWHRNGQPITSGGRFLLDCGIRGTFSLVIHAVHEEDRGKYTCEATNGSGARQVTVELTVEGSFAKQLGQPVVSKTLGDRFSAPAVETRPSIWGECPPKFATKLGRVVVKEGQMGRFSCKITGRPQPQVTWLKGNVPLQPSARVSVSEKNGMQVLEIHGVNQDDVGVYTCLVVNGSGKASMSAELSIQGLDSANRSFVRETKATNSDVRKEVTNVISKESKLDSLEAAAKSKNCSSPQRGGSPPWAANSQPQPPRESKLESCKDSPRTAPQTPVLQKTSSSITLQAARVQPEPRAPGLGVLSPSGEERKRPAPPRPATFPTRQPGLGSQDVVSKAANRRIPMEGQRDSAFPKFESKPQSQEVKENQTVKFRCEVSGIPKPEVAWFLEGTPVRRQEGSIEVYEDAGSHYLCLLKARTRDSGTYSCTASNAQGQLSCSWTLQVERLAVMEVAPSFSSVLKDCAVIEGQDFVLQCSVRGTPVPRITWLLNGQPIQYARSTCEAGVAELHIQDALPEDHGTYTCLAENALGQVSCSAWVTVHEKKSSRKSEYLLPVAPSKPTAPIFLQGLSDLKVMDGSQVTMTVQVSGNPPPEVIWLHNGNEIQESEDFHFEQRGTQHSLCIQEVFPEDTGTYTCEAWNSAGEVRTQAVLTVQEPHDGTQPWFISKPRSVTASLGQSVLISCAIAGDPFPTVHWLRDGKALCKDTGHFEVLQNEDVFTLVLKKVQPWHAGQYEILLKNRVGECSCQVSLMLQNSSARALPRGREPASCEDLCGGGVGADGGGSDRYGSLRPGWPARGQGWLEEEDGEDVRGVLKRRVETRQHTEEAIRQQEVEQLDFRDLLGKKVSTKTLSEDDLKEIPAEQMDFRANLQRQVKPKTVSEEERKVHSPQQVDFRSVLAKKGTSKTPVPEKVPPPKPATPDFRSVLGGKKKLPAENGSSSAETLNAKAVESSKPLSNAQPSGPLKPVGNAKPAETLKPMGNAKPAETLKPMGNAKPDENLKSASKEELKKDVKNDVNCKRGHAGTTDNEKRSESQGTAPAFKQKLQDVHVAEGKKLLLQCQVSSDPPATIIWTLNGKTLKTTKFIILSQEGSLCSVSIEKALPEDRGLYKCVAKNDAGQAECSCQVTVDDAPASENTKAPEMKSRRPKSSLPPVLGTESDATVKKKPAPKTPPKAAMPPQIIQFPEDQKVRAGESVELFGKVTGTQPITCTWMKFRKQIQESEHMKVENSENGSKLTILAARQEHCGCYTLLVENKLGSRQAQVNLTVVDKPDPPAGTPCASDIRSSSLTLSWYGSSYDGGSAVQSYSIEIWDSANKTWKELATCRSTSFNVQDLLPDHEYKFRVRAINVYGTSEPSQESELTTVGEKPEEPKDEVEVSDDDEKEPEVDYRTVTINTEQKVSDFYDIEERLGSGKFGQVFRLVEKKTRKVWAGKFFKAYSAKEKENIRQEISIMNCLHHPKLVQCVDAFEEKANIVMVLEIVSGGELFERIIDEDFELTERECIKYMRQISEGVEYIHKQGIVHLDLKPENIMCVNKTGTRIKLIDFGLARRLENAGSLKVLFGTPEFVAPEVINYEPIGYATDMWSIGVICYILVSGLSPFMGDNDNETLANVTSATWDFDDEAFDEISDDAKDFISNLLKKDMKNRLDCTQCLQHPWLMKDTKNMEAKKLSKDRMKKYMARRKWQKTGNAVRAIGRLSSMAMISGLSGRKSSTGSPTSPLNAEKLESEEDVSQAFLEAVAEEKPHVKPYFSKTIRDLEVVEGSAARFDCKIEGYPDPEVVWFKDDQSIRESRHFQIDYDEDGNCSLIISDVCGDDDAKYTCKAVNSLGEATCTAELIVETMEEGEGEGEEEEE
Chain of Citron Rho-interacting kinase (Homo sapiens) (O14578 whole entry): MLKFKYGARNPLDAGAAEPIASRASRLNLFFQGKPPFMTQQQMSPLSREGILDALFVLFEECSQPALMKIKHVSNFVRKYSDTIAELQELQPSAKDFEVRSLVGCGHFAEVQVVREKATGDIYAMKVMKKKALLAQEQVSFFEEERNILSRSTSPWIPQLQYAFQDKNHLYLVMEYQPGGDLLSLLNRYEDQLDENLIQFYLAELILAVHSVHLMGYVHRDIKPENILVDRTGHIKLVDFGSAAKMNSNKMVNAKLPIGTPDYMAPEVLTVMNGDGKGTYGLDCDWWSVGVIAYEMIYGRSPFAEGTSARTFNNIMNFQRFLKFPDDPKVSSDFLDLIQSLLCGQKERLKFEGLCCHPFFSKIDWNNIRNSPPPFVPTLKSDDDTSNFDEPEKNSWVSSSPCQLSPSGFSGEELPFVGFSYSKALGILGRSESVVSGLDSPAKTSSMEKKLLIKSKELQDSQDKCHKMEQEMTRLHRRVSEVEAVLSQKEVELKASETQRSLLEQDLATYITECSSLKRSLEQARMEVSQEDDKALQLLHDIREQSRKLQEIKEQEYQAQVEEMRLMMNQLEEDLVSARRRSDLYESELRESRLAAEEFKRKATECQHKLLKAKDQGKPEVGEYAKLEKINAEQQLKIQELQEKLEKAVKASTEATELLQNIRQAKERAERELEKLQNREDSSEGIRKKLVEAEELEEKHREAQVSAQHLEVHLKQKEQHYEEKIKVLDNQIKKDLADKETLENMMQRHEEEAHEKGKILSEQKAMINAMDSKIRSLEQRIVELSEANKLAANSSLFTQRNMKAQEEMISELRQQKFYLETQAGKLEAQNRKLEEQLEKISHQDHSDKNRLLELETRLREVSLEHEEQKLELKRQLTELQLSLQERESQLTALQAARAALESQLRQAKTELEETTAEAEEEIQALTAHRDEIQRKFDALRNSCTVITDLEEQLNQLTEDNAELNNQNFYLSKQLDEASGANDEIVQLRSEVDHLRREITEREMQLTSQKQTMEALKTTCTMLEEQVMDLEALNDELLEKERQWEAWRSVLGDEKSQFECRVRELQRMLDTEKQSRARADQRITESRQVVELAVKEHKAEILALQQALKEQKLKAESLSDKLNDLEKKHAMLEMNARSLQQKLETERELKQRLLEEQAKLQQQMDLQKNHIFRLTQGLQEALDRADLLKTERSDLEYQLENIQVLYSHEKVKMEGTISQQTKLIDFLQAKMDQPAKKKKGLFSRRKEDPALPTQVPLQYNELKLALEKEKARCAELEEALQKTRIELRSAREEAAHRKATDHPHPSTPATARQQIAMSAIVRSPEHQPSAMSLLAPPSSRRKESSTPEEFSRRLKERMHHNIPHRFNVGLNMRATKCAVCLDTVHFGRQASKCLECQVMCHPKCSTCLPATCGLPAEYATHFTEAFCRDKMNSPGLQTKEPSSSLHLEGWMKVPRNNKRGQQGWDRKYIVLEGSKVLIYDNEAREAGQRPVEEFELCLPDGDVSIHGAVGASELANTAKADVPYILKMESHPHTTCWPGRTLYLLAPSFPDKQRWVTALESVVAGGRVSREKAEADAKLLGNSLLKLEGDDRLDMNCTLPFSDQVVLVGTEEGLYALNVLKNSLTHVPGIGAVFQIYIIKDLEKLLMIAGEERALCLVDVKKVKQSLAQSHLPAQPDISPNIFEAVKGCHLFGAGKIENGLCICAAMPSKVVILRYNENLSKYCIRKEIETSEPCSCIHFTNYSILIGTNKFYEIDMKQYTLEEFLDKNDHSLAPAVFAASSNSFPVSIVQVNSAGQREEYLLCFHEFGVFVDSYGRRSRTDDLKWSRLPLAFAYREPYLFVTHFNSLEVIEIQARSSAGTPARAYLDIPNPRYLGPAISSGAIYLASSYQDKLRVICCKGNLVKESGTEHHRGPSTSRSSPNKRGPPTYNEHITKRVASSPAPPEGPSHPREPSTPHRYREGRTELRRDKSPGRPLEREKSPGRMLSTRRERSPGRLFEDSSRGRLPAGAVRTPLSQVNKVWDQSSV

One may read the inhibition as the drop in the measured response relative to a control, in per cent. On to `CS(=O)(=O)c1cccc(Nc2nccc(-c3sc(N4CCOCC4)nc3-c3cccc(NS(=O)(=O)c4c(F)cccc4F)c3)n2)c1`, for which the inhibition in assay [1] amounted to 78.7%; in [2], 98.5%; in [3], 95.7%; in assay [4], 99.8%; in assay [5], 46.2%; in assay [6], 100%. Further, the inhibition was found to be 15.6% in assay [7]; 16% in assay [8]; 66.8% in [9]; 101% in assay [10]; 84.8% in assay [11]; 99.9% in [12]. The inhibition in assay [13] is -3.87%; in assay [14] it was 96.3%; in assay [15] it was 24.5%.
As for `CC(C)(C)c1cc(NC(=O)Nc2ccc(Oc3ccncc3)cc2)no1`, the inhibition is 93.2% in [1]; -3.92% in [2]; 98.6% in assay [3]; 85.8% in [4]; 3.9% in [5]; 94.8% in [6]. Besides, the inhibition in assay [7] amounted to 19.4%; in assay [8], 11.5%; in assay [9] it was 46.3%; in [10] it was 22.6%; in assay [11] it was 99.7%; in assay [12], 82%. Besides, the inhibition is -1.52% in [13], 15% in [14] and 28.8% in assay [15].
For the molecule `COCCNC(=O)c1ccc2c(c1)nc(-c1cnc(-c3ccc(Cl)cc3)[nH]1)n2CCOC`, the inhibition in [1] was 12.3%; in assay [2], 1.69%; in assay [3], 27.6%; in [4] it was 49.1%; in [5], 3.09%; in assay [6], 41.5%. Further, the inhibition in assay [7] was 17.6%; in assay [8] it was 9.73%; in [9] it was 5.36%; in [10], 34.4%; in [11], 11.8%; in assay [12] it was 70.8%. Besides, the inhibition is -5.27% in assay [13], 2.42% in assay [14] and 7.06% in [15].
